{"source": "patent US6844342B2", "about": "“Heterocyclic substituted 2-methyl-benzimidazole antiviral agents” (Bristol-Myers Squibb Company, priority 2000, dated 2005)", "system": "respiratory syncytial virus Long strain", "assay": "Antiviral activity against respiratory syncytial virus in HEp-2 cells (MTT cell protection)", "assay_type": "cell-based", "protocol": "The antiviral activity of these compounds against respiratory syncytial virus was determined in HEp-2 (ATCC CCL 23) cells that were seeded in 96 well microtiter plates at 1.5×10^4 cells/100 μL/well in DMEM (Dulbecco's Modified Eagle's Medium) supplemented with penicillin, streptomycin, glutamine, and 10% fetal bovine serum. The cells were incubated overnight at 37° C., the culture medium was removed, and cells were infected (100 μL volume in medium containing 2% fetal bovine serum) with respiratory syncytial virus Long strain at 5000 plaque forming units/mL. The compounds, 100 μL at appropriate dilution, were added to the cells 1 hour post infection. After incubation for 4 days at 37° C., the plates were stained with MTT solution (3-[4,5-dimethlythiazol-2-yl]-2,5-diphenyltetrazolium bromide) and incubated for 4 hours at 37° C. The media was aspirated from the cells and 100 μL/well of acidified isopropanol (per liter: 900 mL isopropanol, 100 mL Triton X100, and 4 mL conc. HCl) was added. Plates were incubated for 15 minutes at room temperature with shaking, and an optical density (OD 540) reading at 540 nanometer (nm) was obtained. The optical density reading is proportional to the number of viable cells. The increase in the number of viable cells reflects the protective, antiviral activity of the compound. […]", "data": [{"smiles": "NC(=O)c1ncn([C@@H]2O[C@H](CO)[C@@H](O)[C@H]2O)n1", "note": "[Ribavirin]", "values": [{"measurement": "cell protection", "setting": "at 2.5 μg/mL (corresponding to 10.2 μM), HEp-2 cells, RSV Long strain", "result": 100, "unit": "%"}, {"measurement": "EC50", "setting": "human respiratory syncytial virus, HEp-2 cells infected with RSV Long strain, compound added 1 hour post infection, 4 days at 37° C., read-out: EC50 (concentration that produces 50% cell protection)", "result": 3, "unit": "µM"}]}]}
